Measured values published in patent publication US5814627A, “3, 5-disubstituted and 3, 4, 5-trisubstituted 2-isoxazolines and isoxazoles, process for their preparation and their use as pharmaceuticals” (Hoechst Aktienegesellschaft, priority 1994, dated 1998).
pIC50: −log10 of the molar value. Counter-ions that a name gives are not always drawn.

Key:
[1] = test system: PAF-induced asthma attack; test: Test 7: antiasthmatic effect, PAF-induced asthma attack; format: in vivo; conditions: Cavia porcellus; i.d., 15 minutes before PAF; guinea pig
Experimental: Test 7: Testing for antiasthmatic effect
Anesthetized guinea pigs, which were cannulated in the jugular vein to allow injection of the PAF, were used for testing for antiasthmatic effect. The test preparations were also administered intravenously (i.v.), 5 min before PAF administration, into the blood stream through the same venous cannula, or else administered intraduodenally (i.d.), 15 minutes before the PAF, through an opening in the duodenum which had been installed and cannulated surgically. The bronchial width was recorded in an overflow pneumonogram before and after administering the preparation. Evaluation: ED50 in mg/kg i.d. as compared with the PAF-induced asthma attack.

[2] = test system: tumor cell line 20-10-5S (hybridoma cell line); test: Test 8: Inhibition of tumor cell proliferation; format: cell-based; conditions: 48 h + 16 h tritiated thymidine incorporation; 20-10-5S cells
adjuvant/arthritis model = test: Test 6: antiarthritic effect in the adjuvant/arthritis model; format: in vivo, rat (Wistar-Lewis); conditions: Rattus norvegicus, po, 408 h, daily for 17 days, rat, read-out: Test 6 Paw volume (% inhibition); for inhibition in vivo at 25 mg/kg: 25 mg/kg orally; for inhibition in vivo at 50 mg/kg: 50 mg/kg orally
[3] = test system: leukotriene B4 synthesis in white blood cells; test: Test 3: LTB4 formation by white blood cells; format: cell-based; conditions: Homo sapiens, read-out: Test 3 residual activity (LTB4 formation), percent of control
Experimental: TEST 3. LTB4 formation by white blood cells
Isolation of white blood cells:
40 ml of human blood were mixed with 8 ml of 6% dextran solution (dextran, mw: 480,000 in PM16). After one hour at room temperature, the supernatant,which was composed of white blood cells, was removed, diluted with an equal volume of PM16, and centrifuged for 15 minutes at 300×g (1600 rpm). The sediment was next resuspended in approximately 5-6 ml of PM16 and, once the cell count had been determined in a Coulter Counter, adjusted to 10^7 cells/ml.
The test mixture comprised 0.24 ml of cell suspension, 0.03 ml of 20 mM CaCl2 /5 mM MgCl2 and 5 μl of test substance. Following 15 minutes of preincubation at 37° C., the reaction was started with 0.03 ml of A23187/glutathione (100 μg of A23187/ml; 15.4 μg of glutathione/ml). The incubation was terminated after 5 minutes at 37° C. by immediate cooling of the samples down to 0° C. After centrifuging for 2 minutes in an Eppendorff Centrifuge (0° C.), the supernatant was removed and examined chromatographically.
High pressure liquid chromatography (HPLC): the HPLC equipment comprises a Kratos pump (Spectro-flow 400), a cooled automatic BT 7041 sample injector (Biotronik) having a 75 μl sample loop, a Nucleosil C18 column (100*3 mm, 5 μm particles of Chrompack), a UV detector (Kratos) Spectroflow 757 (wavelength: 280 nm, measurement range: 0.1 AUFS, time constant: 0.5 s) and a Spectra Physics integrator (SP 4270). The eluent (725 ml of methanol, 275 ml of water and 0.1 ml of acetic acid) was supplied at a flow rate of 0.7 ml/minute and at a pressure of about 100 bar.
When doing this, the measurement range which has been set can be examined and altered if necessary. It is also vital to measure the test substances at the particular test concentration (e.g.: 10^-5 M) in PM16 before the cell incubation, since the test substances might conceal the LTB4 peak. If this is the case, a lower concentration must be selected.
(§1) The values in the table show the concentration of the test substance which was employed in μM and, besides this, the residual activity measured in percent based on the control, which was set to be 100%. The interleukin is additionally indicated in test 4.

[4] = test system: cyclooxygenase-dependent thrombocyte aggregation; test: Test 5: Cyclooxygenase-dependent thrombocyte aggregation; format: cell-based, human; conditions: Homo sapiens, arachidonic acid as inducer, read-out: Test 5 residual activity (cyclooxygenase-dependent thrombocyte aggregation), percent of control
Experimental: TEST 5. Cyclooxygenase-dependent thrombocyte aggregation
Platelet-rich plasma (PRP): to inhibit coagulation, human blood was treated with 1/10 of its volume of 3.8% sodium citrate solution. Centrifugation then takes place at 105×g for 20 minutes and the supernatant (PRP) is removed. 200 μl of PRP were preincubated, at 37° C. for 10 minutes, together with 30 μl of test substance in a PAP4 aggregometer (BioData). The test substance was dissolved in organic solvent and diluted 1:30 with buffer (50 mM TisHCl, pH 8.0; 90 mM NaCl). Aggregation is triggered with 20 μl of inducer. During the aggregation, stirring takes place at 800 rpm. Arachidonic acid, 5 mg/ml, was used as the inducer.
as §1

[5] = test system: polymorphonuclear leucocytes (PMNL); test: Test 2: Release of oxygen radicals from human PMNL; format: cell-based; conditions: read-out: Test 2 residual activity (release of oxygen radicals), percent of control
Experimental: Isolation of polymorphonuclear leucocytes (PMNL) from human peripheral blood for carrying out tests 1 and 2 10 ml of human blood were diluted with 10 ml of HBSS (Serva) and underlaid with 15 ml of Lymphoprep (Dr. Molter GmbH, Heidelberg). The sample was then centrifuged for 25 minutes at 400×g (1600 revolutions per minute, Minifuge 2, Heraeus, Osterode). […] A white ring, composed of mononuclear cells, is located between these two phases. The lowermost phase is composed of erythrocytes which are covered with a white layer of PMNL. The uppermost phase, and also the Lymphoprep and the white ring, were carefully removed using a syringe. The remaining sediment was carefully resuspended in 15 ml of 3% dextran in PM16 (mw: 485,000, Sigma, Deisenhofen). The suspension was then left to stand at room temperature for one hour. During this time, the erythrocytes sedimented while the PMNL remained in the supernatant. The supernatant was removed, diluted with an approximately equal volume of PM16, and centrifuged for 15 minutes at 400×g. Should the PMNL sediment be heavily contaminated with erythrocytes, it is necessary to carry out a hypotonic lysis. To do this, the sediment was resuspended in 750 μl of water. After exactly 15 seconds, the suspension was diluted with approximately 7 ml of PM16 and centrifuged for 10 minutes at 400×g. If necessary, this lysis was repeated once more. Otherwise, the PMNL sediment was resuspended in a suitable medium.
The PMNL were resuspended (5·10^6 cells/ml) in Dulbecco's PBS, supplemented with 7.5 mM glucose. Care must be taken to ensure that the PMNL are free of erythrocytes. 100 μl of PMNL, 700 μl of PBS+glucose and 100 μl of cytochrome C (9.38 mg/ml of PBS+glucose) were mixed in a semi-microcuvette. 100 μl of PMNL, 500 μl of PBS+glucose, 100 μl of cytochalasin B ([…]), 100 μl of TNF (0.05 ng) and 100 μl of cytochrome C (9.38 mg/ml of PBS+glucose) were mixed for the fMLP-induced release of oxygen. Measurements were made in a double-beam photometer meter (Perkin-Elmer 552 S) at a wavelength of 550 nm. The measurement range is 0-1 extinction units. The cuvettes were temperature-equilibrated to 37° C. The reference cuvette additionally contained 10 μl of SOD (6 mg of SOD/ml of PBS+glucose). Following a preincubation of 5 minutes, the reaction is started with 100 μl of inducer. The reaction is started with 1·10^-7 mol of fMLP.
as §1

In the case of CCOC(=O)CNC(=O)NCc1cc(-c2cc(C(C)(C)C)c(O)c(C(C)(C)C)c2)no1 [Example 54, Ethyl (3-(3-(4-hydroxy-3,5-di-tert-butylphenyl)isoxazol-5-ylmethyl)ureido) acetate], the ED50 [1] was 1 to 3 mg/kg and the pIC50 [2] was 5.00 to 5.30.
With C/C(O)=C(\C#N)C(=O)NCc1cc(-c2cc(C(C)(C)C)c(O)c(C(C)(C)C)c2)no1 [Example 53, 2-Cyano-3-hydroxybut-2-enecarboxylic acid(3-(4-hydroxy-3,5-di-tert-butylphenyl)isoxazol-5-ylmethyl)amide] the inhibition in vivo at 25 mg/kg (adjuvant/arthritis model) was 48%, the ED50 [1] was 10 to 50 mg/kg and the pIC50 [2] was 5.00 to 5.10.
CC(C)(C)c1cc(-c2cc(CNC(=O)NCC(=O)O)on2)cc(C(C)(C)C)c1O [Example 56, (3-(3-(4-Hydroxy-3,5-di-tert-butylphenyl)isoxazol-5-ylmethyl)ureido)acetic acid] showed an ED50 [1] of ~50 mg/kg.
CC(C)(C)c1cc(C2=NOC(P(=O)(O)O)C2)cc(C(C)(C)C)c1O (centres unmarked) [Example 6, 3-(4-Hydroxy-3,5-di-tert-butylphenyl)-2-isoxazolin-5-ylphosphonic acid] gave an ED50 [1] of ~50 mg/kg.
CC(C)(C)c1cc(C2CC(c3ccncc3)=NO2)cc(C(C)(C)C)c1O (centres unmarked) [Example 60, 3-(4-Pyridyl)-5-(4-hydroxy-3,5-di-tert-butylphenyl)-2-isoxazoline] gave an activity at 10 µM [3] of 88%.
In the case of C[C@H](O)[C@@H]1CC(c2cc(C(C)(C)C)c(O)c(C(C)(C)C)c2)=NO1 (relative stereo) [Example 20], the activity at 10 µM [4] was 100%, the inhibition in vivo at 25 mg/kg (adjuvant/arthritis model) was 67% and the ED50 [1] was ~50 mg/kg. For the same compound, the pIC50 [2] was > 5.30.
COP(=O)(O)C1CC(c2cc(C(C)(C)C)c(O)c(C(C)(C)C)c2)=NO1 (centres unmarked) [Example 7, Monomethyl 3-(4-hydroxy-3,5-di-tert-butylphenyl)-2-isoxazolin-5-ylphosphonate] gave an activity at 100 µM [4] of 95% and an ED50 [1] of 10 to 30 mg/kg.
In the case of COP(=O)(OC)C1CC(c2cc(C(C)(C)C)c(O)c(C(C)(C)C)c2)=NO1 (centres unmarked) [Example 5], the activity at 100 µM [4] was 98% and the ED50 [1] was < 10 mg/kg.
In the case of CC(C)(C)c1cc(-c2cc(CCOC(=O)NCC(=O)O)on2)cc(C(C)(C)C)c1O [Example 43, N-(2-(4-Hydroxy-3,5-di-tert-butylphenyl)isoxazol-5-ylethoxycarbonyl)glycine], the activity at 10 µM [3] was 93% and the activity at 100 µM [4] was 99%.
Compound CC(OC(=O)[C@@H](N)Cc1ccccc1)c1cc(-c2cc(C(C)(C)C)c(O)c(C(C)(C)C)c2)no1 (stereo partly drawn) [Example 70, L-Phenylalanine-1-(3-(4-hydroxy-3,5-di-tert-butylphenyl)isoxazol-5-yl)ethylester hydrochloride] has an activity at 10 µM [5] of 22%, an inhibition in vivo at 25 mg/kg (adjuvant/arthritis model) of 59% and a pIC50 [2] of 5.30.
With CC(C)(C)c1cc(-c2cc(COC(=O)NCC(=O)O)on2)cc(C(C)(C)C)c1O [Example 40, N-(3-(4-Hydroxy-3,5-di-tert-butylphenyl)isoxazol-5-ylmethoxycarbonyl)glycine] the ED50 [1] was 1 to 3 mg/kg and the pIC50 [2] was > 5.30.
Cc1cc(CNC(=O)C2(C)CC(c3cc(C(C)(C)C)c(O)c(C(C)(C)C)c3)=NO2)cc(C)c1O (centres unmarked) [Example 14] gave an activity at 10 µM [4] of 100% and an ED50 [1] of 10 to 50 mg/kg.
With Cc1oncc1C(=O)NCc1cc(-c2cc(C(C)(C)C)c(O)c(C(C)(C)C)c2)no1 [Example 52] the ED50 [1] was 3 to 10 mg/kg and the pIC50 [2] was > 5.30.
CC(C)(C)c1cc(C2=NOC(c3ccsc3)C2)cc(C(C)(C)C)c1O (centres unmarked) [Example 8] showed an activity at 1 µM ([3]; 1 μM) of 93%, an activity at 10 µM [3] of 15% and an activity at 100 µM [4] of 91%. The inhibition in vivo at 50 mg/kg (adjuvant/arthritis model) was 67%, the ED50 [1] was ~10 mg/kg and the pIC50 [2] was > 5.30.
In the case of CC(C)(C)c1cc(-c2cc(CN)on2)cc(C(C)(C)C)c1O [Example 48], the inhibition in vivo at 50 mg/kg (adjuvant/arthritis model) was 60%, the ED50 [1] was 10 to 50 mg/kg and the pIC50 [2] was 5.00 to 5.30.
Work on CC(OC(=O)[C@@H](N)Cc1ccccc1)C1CC(c2cc(C(C)(C)C)c(O)c(C(C)(C)C)c2)=NO1 (stereo partly drawn) [Example 73, L-Phenylalanine-1-(3-(4-hydroxy-3,5-di-tert-butylphenyl)-2-isoxazolin-5-yl)ethyl ester hydrochloride] yielded an activity at 1 µM ([5]; 1 μM) of 100%, an activity at 10 µM [5] of 9% and an activity at 25 µM ([4]; 25 μM) of 100%. The inhibition in vivo at 50 mg/kg (adjuvant/arthritis model) was 73%.
With CC(C)(C)c1cc(C2=NOC(CO)C2)cc(C(C)(C)C)c1O (centres unmarked) [Example 1, 3-(4-Hydroxy-3,5-di-tert-butylphenyl)-5-hydroxymethyl-2-isoxazoline] the activity at 10 µM [3] was 92%, the activity at 10 µM [4] was 93% and the inhibition in vivo at 50 mg/kg (adjuvant/arthritis model) was 70%. For the same compound, the ED50 [1] was 10 to 50 mg/kg and the pIC50 [2] was 5.00 to 5.30.
With CC(C)(OCc1cc(-c2cc(C(C)(C)C)c(O)c(C(C)(C)C)c2)no1)C(=O)O [Example 36, 2-(3-(4-Hydroxy-3,5-di-tert-butylphenyl)isoxazol-5-ylmethoxy)-2-methylpropionic acid] the activity at 10 µM [3] was 93% and the activity at 100 µM [4] was 87%.
